Each structure is given as a SMILES string.

For one assay, the target named is c-KIT kinase (Homo sapiens (Human), UniProt P10721). The assay is described as follows: c-KIT kinase assay (radiometric). The format is biochemical. Here is the method:
(§1) Inhibition of c-KIT kinase activity by a test compound disclosed herein was estimated by radiometric assay. Standard assay conditions were 20 ng of recombinant c-Kit (SignalChem) with 2 μg of substrate Poly-(Glu 4:Tyr 1) (sigma) in the assay buffer in kinase reaction buffer (10 mM MOPS pH 7.0, 0.21 mM EDTA, 0.5% glycerol, 0.001% Brij-35, 0.01 2-mercaptoehtanol, 1 mg/ml BSA, 10 mM MgCl2, 10 mM MnCl2, 10 μM ATP, 0.1 μCi per well [^33P]-ATP, in the presence of test compound (diluted in final concentration of 4% DMSO) or DMSO control, with a final volume of 25 μl for 60 minutes at 30° C. The reaction was stopped by adding 5 μl of 3% phosphoric acid solution. Total reaction solution was then harvested onto a filter plate (UniFilter-96 GF/B, PerkinElmer), and washed 20 times for 5 min with dH2O. 30 μl of MicroScint™-20 Cocktail (PerkinElmer) was added to dried plate. The plate was sealed and counted using a TopCount scintillation detector (PerkinElmer). […] The IC50 values of quinoxaline compounds of this invention against c-KIT kinase were determined using the GraphPad Prism 5 software.
(§2) The IC50 values for selected quinoxaline compounds of this invention against CSF-1R, c-KIT, FLT3, and PDGFRβ are summarized in Table 3.

A further assay deals with FLT3 kinase (Homo sapiens (Human), UniProt P36888). Briefly: FLT3 kinase assay (radiometric). The format is biochemical. Here is the method: as §1, with “of FLT3” for “of c-KIT”, “were 5” for “were 20”, “recombinant FLT3 (Thermo Fisher)” for “recombinant c-Kit (SignalChem)”, “BSA, MgCl2” for “BSA,”, “10 mM,” for “10 mM MgCl2, 10 mM MnCl2,”, “against FLT3” for “against c-KIT”
FLT3 kinase, sequence (P36888 27-993): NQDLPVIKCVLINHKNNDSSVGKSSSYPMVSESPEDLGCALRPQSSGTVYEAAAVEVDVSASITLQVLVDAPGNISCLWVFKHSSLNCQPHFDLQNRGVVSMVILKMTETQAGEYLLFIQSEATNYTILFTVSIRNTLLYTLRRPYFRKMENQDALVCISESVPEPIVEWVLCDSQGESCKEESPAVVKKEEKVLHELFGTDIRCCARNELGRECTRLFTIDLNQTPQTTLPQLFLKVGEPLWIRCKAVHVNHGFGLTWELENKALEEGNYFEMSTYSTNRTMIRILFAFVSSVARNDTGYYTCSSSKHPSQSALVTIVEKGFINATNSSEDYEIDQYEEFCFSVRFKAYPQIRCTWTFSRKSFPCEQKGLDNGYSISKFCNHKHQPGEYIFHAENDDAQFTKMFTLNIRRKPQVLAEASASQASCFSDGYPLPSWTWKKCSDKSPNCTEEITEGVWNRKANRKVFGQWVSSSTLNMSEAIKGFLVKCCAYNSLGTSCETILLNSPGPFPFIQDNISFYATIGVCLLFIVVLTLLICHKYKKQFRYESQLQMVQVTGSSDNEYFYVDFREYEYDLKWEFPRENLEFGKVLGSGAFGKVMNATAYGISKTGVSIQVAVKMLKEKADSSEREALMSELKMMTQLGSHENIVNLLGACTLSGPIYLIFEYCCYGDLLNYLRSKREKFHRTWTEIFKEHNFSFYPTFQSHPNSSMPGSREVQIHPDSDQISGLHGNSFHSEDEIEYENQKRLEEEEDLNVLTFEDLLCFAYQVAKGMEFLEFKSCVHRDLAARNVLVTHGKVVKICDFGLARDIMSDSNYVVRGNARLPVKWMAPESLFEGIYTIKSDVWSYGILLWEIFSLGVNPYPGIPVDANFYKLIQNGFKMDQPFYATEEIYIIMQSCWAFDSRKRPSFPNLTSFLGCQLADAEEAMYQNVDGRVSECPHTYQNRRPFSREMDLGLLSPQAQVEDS
as §2

The subject of assay [1] is CSF-1-dependent M-NFS-60 mouse myeloid leukemia cell. Briefly: M-NFS-60 cell proliferation assay (CellTiter-96). The format is cell-based. To be noted: Cytotoxicity, M-NFS-60 cells, 72 hours. As for the experimental part:
(§3) Inhibition of cell growth by compounds was measured using CellTiter™-96 assay. The cytotoxicity of compounds was evaluated in CSF-1-dependent M-NFS-60 mouse myeloid leukemia cell, FLT3 signal addicted MV4-11 human acute myeloid leukemia cell with FLT3-ITD mutation, c-KIT signal addicted Kasumi-1 human acute myeloid leukemia cell with c-KIT N822K activating mutation, and THP-1 human acute monocytic leukemia cell harboring NRAS G12D mutation.
The compounds disclosed herein were tested in M-NFS-60 cell proliferation assay to determine their cellular potency against CSF-1R. […] Inhibition of CSF-1R kinase activity will cause reduced growth and/or cell death. […] Cells were allowed to expand until reaching saturation at which point they were subcultured or harvested for assay use.
(§4) M-NFS-60, Kasumi-1, MV4-11 and THP-1 cells were seeded into 96-well plates at 2000, 64000, 6500, and 5000 cells/well, respectively, and incubated at 37° C., 5% CO2 overnight. Then, these seeded cells were treated with increasing concentrations of the test compounds and incubated for another 72 hours. At the end of the incubation, CellTiter96® AQueous One Solution Reagent (Promega) was added and incubated for 4 hours. Cell viability was determined by measuring absorbance at 490 nm using EMax® microplate reader (Molecular Devices).

Assay [2] deals with MV4-11 human acute myeloid leukemia cell with FLT3-ITD mutation. The assay is described as follows: MV4-11 cell proliferation assay (CellTiter-96). The format is cell-based. To be noted: Cytotoxicity, MV4-11 cells, 72 hours. Here is the method:
as §3
The compounds disclosed herein were tested in MV4-11 cell proliferation assay to determine their cellular potency against FLT3 kinase. MV4-11 human acute myeloid leukemia cells harbor ligand-independent FLT3-ITD activating mutation, which render its proliferation FLT3-ITD dependent. Inhibition of FLT3 kinase activity will cause reduced growth and/or cell death. […] Cells were allowed to expand until reaching saturation at which point they were subcultured or harvested for assay use.
as §4

Assay [3] concerns Kasumi-1 human acute myeloid leukemia cell with c-KIT N822K activating mutation. Briefly: Kasumi-1 cell proliferation assay (CellTiter-96). The note with it: Cytotoxicity, Kasumi-1 cells, 72 hours. Format: cell-based. As for the experimental part:
as §3
The compounds disclosed herein were tested in Kasumi cell proliferation assay to determine their cellular potency against c-KIT kinase. Kasumi human acute myeloid leukemia cells harbor ligand-independent N822K c-KIT activating mutation, thus the cell proliferation relied on c-KIT signal. Inhibition of c-KIT kinase activity will cause reduced growth and/or cell death. […] Cells were allowed to expand until reaching saturation at which point they were subcultured or harvested for assay use.
as §4

Assay [4] has as its system THP-1 human acute monocytic leukemia cell harboring NRAS G12D mutation. The assay is described as follows: THP-1 cell proliferation assay (counter screen, CellTiter-96). Format: cell-based. To be noted: Cytotoxicity, THP-1 cells (counter screen), 72 hours. Here is the method: as §3
THP-1 human acute monocytic leukemia cells harbor NRAS G12D mutation, which renders cell proliferate independently of class III RTKs signal. […] Cells were allowed to expand until reaching saturation at which point they were subcultured or harvested for assay use.
as §4
In general terms: The purpose of a counterscreen is to sort out artefacts and off-target activity.

In another assay the target is CSF-1R kinase (Homo sapiens (Human), UniProt P07333). The assay is described as follows: CSF-1R kinase assay (AlphaScreen). The format is biochemical. As for the experimental part:
Inhibition of CSF-1R kinase activity by a test compound disclosed herein was estimated by AlphaScreen (PerkinElmer). […] Reactions were incubated at 30° C. for 45 min and stopped by adding 5 μL of 50 mM EDTA. Analysis of resulting product using an AlphaScreen kit, and counted with Enspire Alpha (PerkinElmer). […] The IC50 values of quinoxaline compounds of this invention against CSF-1R kinase were determined using the GraphPad Prism 5 software.

The target of a further assay is PDGFRβ kinase (Homo sapiens (Human), UniProt P09619). The assay is described as follows: PDGFRβ kinase assay (radiometric). Format: biochemical. The note with it: bound. As for the experimental part:
as §1, with “of PDGFRβ” for “of c-KIT”, “were 10” for “were 20”, “recombinant PDGFRβ” for “recombinant c-Kit”, “well [^33P]-ATP),” for “well [^33P]-ATP,”, “against PDGFRβ” for “against c-KIT”
as §2

c-KIT kinase, sequence (P10721 26-976): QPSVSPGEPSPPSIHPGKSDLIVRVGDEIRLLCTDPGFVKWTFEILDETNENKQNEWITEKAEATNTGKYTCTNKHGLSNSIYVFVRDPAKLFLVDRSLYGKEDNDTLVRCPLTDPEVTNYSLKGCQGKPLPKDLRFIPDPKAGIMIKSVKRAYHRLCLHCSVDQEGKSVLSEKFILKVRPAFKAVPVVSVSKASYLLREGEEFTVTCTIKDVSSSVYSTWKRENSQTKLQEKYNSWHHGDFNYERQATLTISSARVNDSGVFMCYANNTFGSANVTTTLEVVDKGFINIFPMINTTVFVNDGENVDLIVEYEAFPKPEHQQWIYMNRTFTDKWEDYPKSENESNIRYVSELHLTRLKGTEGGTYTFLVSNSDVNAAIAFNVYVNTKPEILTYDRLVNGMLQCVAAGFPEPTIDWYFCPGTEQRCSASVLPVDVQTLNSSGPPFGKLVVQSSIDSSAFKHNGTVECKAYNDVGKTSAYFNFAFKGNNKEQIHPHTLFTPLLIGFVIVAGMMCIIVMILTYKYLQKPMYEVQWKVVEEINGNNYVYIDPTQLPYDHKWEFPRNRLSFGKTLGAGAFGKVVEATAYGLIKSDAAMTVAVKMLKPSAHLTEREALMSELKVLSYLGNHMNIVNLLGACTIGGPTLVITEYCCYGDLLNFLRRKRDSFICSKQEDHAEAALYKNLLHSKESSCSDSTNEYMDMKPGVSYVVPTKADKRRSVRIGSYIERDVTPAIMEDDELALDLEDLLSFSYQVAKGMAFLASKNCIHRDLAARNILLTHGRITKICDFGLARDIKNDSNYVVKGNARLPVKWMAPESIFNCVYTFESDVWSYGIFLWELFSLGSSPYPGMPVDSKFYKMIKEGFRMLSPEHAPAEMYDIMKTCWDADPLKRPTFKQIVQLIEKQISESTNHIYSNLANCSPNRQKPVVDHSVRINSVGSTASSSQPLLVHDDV
CSF-1R kinase, sequence (P07333 20-972): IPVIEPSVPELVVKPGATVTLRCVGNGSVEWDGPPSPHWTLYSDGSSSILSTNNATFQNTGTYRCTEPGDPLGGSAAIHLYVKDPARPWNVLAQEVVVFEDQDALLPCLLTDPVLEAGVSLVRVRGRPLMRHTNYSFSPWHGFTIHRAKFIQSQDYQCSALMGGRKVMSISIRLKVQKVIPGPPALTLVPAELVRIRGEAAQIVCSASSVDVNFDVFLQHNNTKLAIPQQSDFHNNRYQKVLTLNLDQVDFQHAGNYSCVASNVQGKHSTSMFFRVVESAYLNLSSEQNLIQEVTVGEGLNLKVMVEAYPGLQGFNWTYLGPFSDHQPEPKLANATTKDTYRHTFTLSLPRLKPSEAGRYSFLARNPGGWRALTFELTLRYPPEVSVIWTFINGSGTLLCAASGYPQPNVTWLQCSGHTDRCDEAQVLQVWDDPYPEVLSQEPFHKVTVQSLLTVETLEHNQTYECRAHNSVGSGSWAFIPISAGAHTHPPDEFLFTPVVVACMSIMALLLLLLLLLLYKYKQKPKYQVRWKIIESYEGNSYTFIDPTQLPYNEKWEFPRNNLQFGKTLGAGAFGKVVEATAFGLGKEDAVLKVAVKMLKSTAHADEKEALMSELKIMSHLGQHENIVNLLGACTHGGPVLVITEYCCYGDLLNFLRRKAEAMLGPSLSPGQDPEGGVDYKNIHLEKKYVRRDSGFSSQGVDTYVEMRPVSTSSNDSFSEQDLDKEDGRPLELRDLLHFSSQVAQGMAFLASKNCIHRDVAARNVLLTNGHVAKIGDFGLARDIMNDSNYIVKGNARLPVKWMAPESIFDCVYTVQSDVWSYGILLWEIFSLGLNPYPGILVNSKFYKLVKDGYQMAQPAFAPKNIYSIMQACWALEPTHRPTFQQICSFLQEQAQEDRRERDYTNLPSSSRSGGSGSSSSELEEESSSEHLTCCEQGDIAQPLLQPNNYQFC
PDGFRβ kinase, sequence (P09619 33-1106): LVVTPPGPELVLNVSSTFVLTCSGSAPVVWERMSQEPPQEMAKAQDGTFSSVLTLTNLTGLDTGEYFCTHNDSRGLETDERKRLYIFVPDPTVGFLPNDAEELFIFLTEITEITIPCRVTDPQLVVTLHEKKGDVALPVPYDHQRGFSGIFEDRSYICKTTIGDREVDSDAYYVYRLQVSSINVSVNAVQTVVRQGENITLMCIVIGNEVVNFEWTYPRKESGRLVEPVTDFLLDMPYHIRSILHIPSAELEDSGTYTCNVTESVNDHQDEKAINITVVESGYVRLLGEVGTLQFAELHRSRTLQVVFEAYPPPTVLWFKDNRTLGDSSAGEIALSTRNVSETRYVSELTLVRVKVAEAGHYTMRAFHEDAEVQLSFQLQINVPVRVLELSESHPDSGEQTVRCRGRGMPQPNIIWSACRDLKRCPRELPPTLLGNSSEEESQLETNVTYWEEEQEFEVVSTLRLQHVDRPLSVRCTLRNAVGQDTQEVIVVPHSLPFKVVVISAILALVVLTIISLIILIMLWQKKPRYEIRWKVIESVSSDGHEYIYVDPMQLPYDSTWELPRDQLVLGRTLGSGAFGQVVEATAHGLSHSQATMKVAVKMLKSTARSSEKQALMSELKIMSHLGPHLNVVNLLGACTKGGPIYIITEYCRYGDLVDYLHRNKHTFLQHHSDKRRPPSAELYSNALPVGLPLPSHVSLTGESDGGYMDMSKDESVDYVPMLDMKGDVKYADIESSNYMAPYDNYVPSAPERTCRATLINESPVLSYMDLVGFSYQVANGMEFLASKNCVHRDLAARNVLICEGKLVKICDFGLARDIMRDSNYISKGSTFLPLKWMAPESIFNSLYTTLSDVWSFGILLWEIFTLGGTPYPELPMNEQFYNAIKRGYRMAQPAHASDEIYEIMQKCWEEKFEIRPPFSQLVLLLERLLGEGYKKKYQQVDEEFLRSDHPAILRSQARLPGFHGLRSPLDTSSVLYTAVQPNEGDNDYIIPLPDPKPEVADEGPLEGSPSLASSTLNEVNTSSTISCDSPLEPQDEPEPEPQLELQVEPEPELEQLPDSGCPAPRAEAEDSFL

For orientation: IC50 means the midpoint of a concentration-inhibition curve. Higher therefore signals weaker potency in that assay. For `COc1cc(Nc2ccc3ncc(N4CCOCC4)nc3c2C#N)ccc1OCc1ccc(C)[n+]([O-])c1` [Example 146, 6-((3-methoxy-4-((6-methyl-1-(λ^1-oxidaneyl)-1λ^4-pyridin-3-yl)methoxy)phenyl)amino)-3-morpholinoquinoxaline-5-carbonitrile], the IC50 against c-KIT kinase (class symbol) is 100 to 300 nM; at FLT3 kinase (class symbol), 100 to 300 nM; in assay [1], 1 to 10 µM; in assay [2], 1 to 10 µM; in assay [3], 1 to 10 µM; in assay [4] it was above 10 µM.

With `COc1cc(Nc2ccc3ncc(N4CCOCC4)nc3c2C#N)ccc1OCc1cncn1C` [Example 55, 6-((3-methoxy-4-((1-methyl-1H-imidazol-5-yl)methoxy)phenyl)amino)-3-morpholinoquinoxaline-5-carbonitrile], the IC50 against CSF-1R kinase (bound) was above 1000 nM; against c-KIT kinase (class symbol) it was 300 to 1000 nM; against FLT3 kinase (bound) it was above 1000 nM; against PDGFRβ kinase it was above 1000 nM.

`COc1cc(Nc2ccc3ncc(N4CCOCC4)nc3c2C#N)ccc1OCC1(C)COC1` [Example 41, 6-((3-methoxy-4-((3-methyloxetan-3-yl)methoxy)phenyl)amino)-3-morpholinoquinoxaline-5-carbonitrile]: the IC50 in assay [1] was above 10 µM; in assay [2] it was 1 to 10 µM; in assay [3] it was 1 to 10 µM; in assay [4], above 10 µM.

`COc1cnc2ccc(Nc3ccc(OC)c(OC)c3)c(C#N)c2n1` [Example 11, 6-((3,4-dimethoxyphenyl)amino)-3-methoxyquinoxaline-5-carbonitrile]: the concentration for half-maximal inhibition (IC50) is above 10 µM in assay [1], 1 to 10 µM in assay [2], 1 to 10 µM in assay [3] and above 10 µM in assay [4].

Turning to `CCOc1cc(Nc2ccc3ncc(N4CCOCC4)nc3c2C#N)ccc1OCc1ccncc1` [Example 47, 6-((3-ethoxy-4-(pyridin-4-ylmethoxy)phenyl)amino)-3-morpholinoquinoxaline-5-carbonitrile], the IC50 in assay [1] is 1 to 10 µM; in assay [2], 1 to 10 µM; in assay [3], above 10 µM; in assay [4], above 10 µM.

On to `COc1cnc2ccc(Nc3ccc(OCc4ccc(OC)c(C#N)c4)c(OC)c3)c(C#N)c2n1` [Example 140, 6-((4-((3-cyano-4-methoxybenzyl)oxy)-3-methoxyphenyl)amino)-3-methoxyquinoxaline-5-carbonitrile], for which the half-inhibitory concentration (IC50) at CSF-1R kinase (class symbol) was 100 to 300 nM; on c-KIT kinase (bound), above 1000 nM; against FLT3 kinase (bound), above 1000 nM; on PDGFRβ kinase it was above 1000 nM.

In the case of `COc1cc(Nc2ccc3ncc(N4CCOCC4)nc3c2C#N)ccc1OCC1CCCC1` [Example 44, 6-((4-(cyclopentylmethoxy)-3-methoxyphenyl)amino)-3-morpholinoquinoxaline-5-carbonitrile], the 50% inhibitory concentration (IC50) in assay [1] is 1 to 10 µM; in assay [2] it was 1 to 10 µM; in assay [3] it was 1 to 10 µM; in assay [4], above 10 µM.

Turning to `COc1cc(Nc2ccc3ncc(N4CCOCC4)nc3c2C#N)ccc1OCC1CCN(C)CC1` [Example 42, 6-((3-methoxy-4-((1-methylpiperidin-4-yl)methoxy)phenyl)amino)-3-morpholinoquinoxaline-5-carbonitrile], the half-inhibitory concentration (IC50) in assay [1] was 1 to 10 µM; in assay [2], 1 to 10 µM; in assay [3], 1 to 10 µM; in assay [4], above 10 µM.

With `COc1cnc2ccc(Nc3ccc(NCc4ccc(C(F)(F)F)nc4)nc3)c(C#N)c2n1` [Example 1, 3-methoxy-6-((6-(((6-(trifluoromethyl)pyridin-3-yl)methyl)amino)pyridin-3-yl)amino)quinoxaline-5-carbonitrile], the IC50 is above 10 µM in assay [1], 1 to 10 µM in assay [2], 1 to 10 µM in assay [3] and above 10 µM in assay [4].

As for `COc1cnc2ccc(Nc3ccc(OCc4cccnc4)nc3)c(C#N)c2n1` [Example 6, 3-methoxy-6-((6-(pyridin-3-ylmethoxy)pyridin-3-yl)amino)quinoxaline-5-carbonitrile], the 50% inhibitory concentration (IC50) was above 10 µM in assay [1], 1 to 10 µM in assay [2], above 10 µM in assay [3] and above 10 µM in assay [4].

In the case of `COc1cnc2ccc(Nc3ccc(OCc4cccnc4)c(OC)c3)c(C#N)c2n1` [Example 8, 3-methoxy-6-((3-methoxy-4-(pyridin-3-ylmethoxy)phenyl)amino)quinoxaline-5-carbonitrile], the IC50 in assay [1] is above 10 µM; in assay [2], 1 to 10 µM; in assay [3], above 10 µM; in assay [4], above 10 µM.

Turning to `COc1ccc(CNc2ccc(Nc3ccc4ncc(OC)nc4c3C#N)cc2OC)cc1` [Example 14, 3-methoxy-6-((3-methoxy-4-((4-methoxybenzyl)amino)phenyl)amino)quinoxaline-5-carbonitrile], the IC50 in assay [1] is above 10 µM; in assay [2] it was 1 to 10 µM; in assay [3], above 10 µM; in assay [4] it was above 10 µM.

The values are drawn from patent US10689362B2, “Quinoxaline compounds as type III receptor tyrosine kinase inhibitors” (Development Center for Biotechnology, priority 2016, dated 2020).
